# Reference: patent publication US12060577B2, “Compositions for expanding natural killer cells” (CASE WESTERN RESERVE UNIVERSITY, priority 2017, dated 2024)
# Test system: OCI-AML3 target cells
# Experiment: effect of TGF-beta and galunisertib on NK cell cytotoxicity (FIG. 11)
# Type: cell-based
# Conditions: 72 hours, NK cells expanded with K562 mbIL-21, 5:1 NK:target
# Protocol: NK cell cytotoxic function was assessed by measuring the number of live cells identified by calcein-AM (CAM) labeling. Target cells and NK cells were labeled with CAM (BD Pharmingen, San Jose, Calif.) and calcein-violet (CV) (eBioscience from ThermoFisher), respectively for approximately 15 minutes in the dark at room temperature. NK cells were co-incubated with target cells at the indicated ratios for 4 hours in triplicate at 37° C. in a tissue culture incubator with 5% CO2, and the samples were analyzed by flow cytometry (Attune NXT, Invitrogen) in 96 well plates. The CV-positive NK cells were gated out for analysis. Percent lysis was calculated according to the equation below: […]
# Referring to FIG. 11, expanded NK cells (K562 cells expressing mbIL-21) were treated with TGF-beta (5 ng/mL), galunisertib, or a combination thereof for 72 hours. […] That drop can be rescued and reversed by co-administering NK cells with galunisertib (middle and right bars), in which case killing efficacy was improved by about 10%.
structure (smiles),measurement,value
Cc1cccc(-c2nn3c(c2-c2ccnc4ccc(C(N)=O)cc24)CCC3)n1 [galunisertib],improvement of killing efficacy,about 10%
